Reference: ChEMBL document CHEMBL5096163, “Current status in the discovery of dual BET/HDAC inhibitors” (Bioorg Med Chem Lett, 2021)

Assays:
[1] = target: Histone deacetylase 1 (Homo sapiens) (UniProt Q13547); experiment: Inhibition of HDAC1 (unknown origin) at 10 uM relative to control
[2] = target: Histone deacetylase 3 (Homo sapiens, UniProt O15379); experiment: Inhibition of human recombinant HDAC3 using Boc-Lys(Ac)-AMC fluorogenic substrate measured after 60 mins by fluorescence assay
[3] = tested on: U-937; experiment: Cytotoxicity against human U-937 cells assessed as reduction in cell viability at 3 uM incubated for 24 hrs by MTT assay relative to control; type: functional

Chain of Histone deacetylase 3 (O15379 whole entry): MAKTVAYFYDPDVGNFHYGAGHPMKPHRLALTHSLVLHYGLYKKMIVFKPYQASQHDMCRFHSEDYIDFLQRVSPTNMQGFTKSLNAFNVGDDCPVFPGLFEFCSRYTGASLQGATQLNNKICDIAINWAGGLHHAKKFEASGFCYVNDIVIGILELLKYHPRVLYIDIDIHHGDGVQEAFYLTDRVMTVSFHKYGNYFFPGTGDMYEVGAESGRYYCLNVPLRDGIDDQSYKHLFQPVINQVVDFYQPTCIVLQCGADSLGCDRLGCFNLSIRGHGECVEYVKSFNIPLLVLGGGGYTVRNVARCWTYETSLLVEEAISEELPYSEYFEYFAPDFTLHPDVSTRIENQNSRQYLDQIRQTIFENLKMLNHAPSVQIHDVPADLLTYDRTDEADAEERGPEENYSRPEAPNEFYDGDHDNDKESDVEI
Chain of Histone deacetylase 1 (Homo sapiens) (Q13547 whole entry): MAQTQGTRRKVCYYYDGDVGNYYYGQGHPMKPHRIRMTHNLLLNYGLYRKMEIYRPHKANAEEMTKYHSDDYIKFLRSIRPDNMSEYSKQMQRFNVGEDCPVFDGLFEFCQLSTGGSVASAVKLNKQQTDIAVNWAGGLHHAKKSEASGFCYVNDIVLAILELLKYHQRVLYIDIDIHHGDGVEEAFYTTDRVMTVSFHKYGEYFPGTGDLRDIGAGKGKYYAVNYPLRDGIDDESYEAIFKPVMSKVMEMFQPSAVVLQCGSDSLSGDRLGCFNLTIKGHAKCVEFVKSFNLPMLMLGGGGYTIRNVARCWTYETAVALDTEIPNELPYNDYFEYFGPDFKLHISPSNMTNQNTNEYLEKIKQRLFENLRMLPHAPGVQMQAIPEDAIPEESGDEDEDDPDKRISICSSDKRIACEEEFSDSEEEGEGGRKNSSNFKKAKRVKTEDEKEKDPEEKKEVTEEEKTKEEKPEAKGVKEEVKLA

Row | Compound | inhibition [1] [%] | IC50 [2] [nM] | Activity [3] [%]
1 | Cc1noc(C)c1-c1cnc2c(c1)c(Cc1ccc(F)cc1)cn2CCCCCCC(=O)NO | 88 | 5 | –
2 | O=C(CCCCCCn1cc(Cc2ccccc2)c2cccnc21)NO | – | 60 | –
3 | COC(c1c(F)cccc1Cl)c1c[nH]c2ncc(-c3c(C)noc3C)cc12 (stereo not given) | – | 5 | –
4 | Cc1sc2c(c1C)C(c1ccc(Cl)cc1)=N[C@@H](CC(=O)NCCCC(=O)Nc1ccccc1N)c1nnc(C)n1-2 | – | – | 16.12
